Assay results: PMC7617971, “OmpA Specifically Modulates the Activity of Enzymes that Reside in the Crowded Bacterial Outer Membrane” (Journal of molecular biology, 2025)

Key:
[1] = target: T1, OmpLA (Escherichia coli, UniProt P0A921); experiment: free fatty acid release by ANS displacement from BSA (fluorescence); format: biochemical; conditions: DMPG proteoliposomes, CaCl2 added to start, 30 °C
T1 construct: gene pldA; functional dimer, needs divalent cation

[2] = target: T2, PagP (Escherichia coli, UniProt P37001); experiment: colorimetric release of 4-nitrophenol, A410; format: biochemical; conditions: DMPG proteoliposomes, pH 8.5, 2 M urea, room temperature; substrate delivered with methyl-beta-cyclodextrin
T2 sequence (P37001 26-186): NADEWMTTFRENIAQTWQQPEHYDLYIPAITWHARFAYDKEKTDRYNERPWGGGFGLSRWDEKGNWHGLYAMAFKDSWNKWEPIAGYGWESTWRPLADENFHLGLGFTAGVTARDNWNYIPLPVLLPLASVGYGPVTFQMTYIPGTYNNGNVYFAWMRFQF

T1 sequence (P0A921 21-289): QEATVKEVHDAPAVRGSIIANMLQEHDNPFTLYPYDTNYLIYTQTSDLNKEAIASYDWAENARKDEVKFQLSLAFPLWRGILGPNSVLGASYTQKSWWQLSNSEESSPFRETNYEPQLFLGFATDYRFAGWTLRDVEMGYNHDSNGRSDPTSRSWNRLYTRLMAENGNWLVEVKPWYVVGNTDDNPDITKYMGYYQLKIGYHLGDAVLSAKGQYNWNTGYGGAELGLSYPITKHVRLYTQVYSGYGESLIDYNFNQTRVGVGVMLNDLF

SMILES	free fatty acid release by ANS displacement from BSA (fluorescence) [1]	colorimetric release of 4-nitrophenol, A410 [2]
CCCCCCCCCCCCCC(=O)OC[C@H](COP(=O)(O)OCC(O)CO)OC(=O)CCCCCCCCCCCCC (some centres unmarked) [DMPG]	the phospholipase activity of OmpLA was measured in DMPG proteoliposomes	–
CCCCCCCCCCCCCCCC(=O)Oc1ccc([N+](=O)[O-])cc1 [palmitate-4-nitrophenol]	–	MβCD facilitates the rapid delivery of the pNP PagP substrate into liposome bilayers
